Laboratory results taken from ChEMBL document CHEMBL1201862, “PubChem BioAssay data set” (2004).
The source made the active and inactive calls.

Experiments:
[1] = molecular target: Voltage-dependent T-type calcium channel subunit alpha-1H (Homo sapiens, UniProt O95180); assay type: functional;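 also: channel activity triggered by adding a high calcium stimulation buffer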
Streptococcus = experiment: GAS UMAA2166 growth inhibition – luminescence, BacTiterGlo, counter-screen for streptokinase expression inhibitor project, dose response (AID 1915); assay type: functional, organism-based;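 also: potency for reduction of bacterial viability or growth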
[2] = tested on: Streptococcus sp. 'group A'; experiment: Streptococcus pyogenes SK(-)GAS viability under kanamycin – luminescence, BacTiterGlo, confirmation, counter-screen for streptokinase expression inhibitor project, dose response (AID 1900); assay type: functional, organism-based
Cytochrome P450 2C19 = Cytochrome P450 2C19 (Homo sapiens, UniProt P33261); experiment: Cytochrome panel assay with activity outcomes. Panel member name: p450-cyp2c19 Compounds with AC50 equal or less than 10 uM are considered active; assay type: functional; conditions: read-out: AC50
Sequence of Cytochrome P450 2C19 (P33261 whole entry): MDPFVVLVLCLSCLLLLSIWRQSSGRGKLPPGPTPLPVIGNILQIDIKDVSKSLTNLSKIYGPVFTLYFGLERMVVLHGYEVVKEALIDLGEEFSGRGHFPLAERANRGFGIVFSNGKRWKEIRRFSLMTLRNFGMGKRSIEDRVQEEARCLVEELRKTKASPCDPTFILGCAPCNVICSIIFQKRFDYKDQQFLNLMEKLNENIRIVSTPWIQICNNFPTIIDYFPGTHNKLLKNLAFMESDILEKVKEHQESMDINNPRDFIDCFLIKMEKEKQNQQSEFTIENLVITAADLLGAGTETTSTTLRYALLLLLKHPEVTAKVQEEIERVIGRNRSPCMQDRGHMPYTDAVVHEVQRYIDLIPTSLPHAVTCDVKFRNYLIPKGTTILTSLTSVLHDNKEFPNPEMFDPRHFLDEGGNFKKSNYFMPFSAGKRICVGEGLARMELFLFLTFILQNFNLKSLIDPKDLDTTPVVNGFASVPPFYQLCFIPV

Cytochrome P450 2C9 = Cytochrome P450 2C9 (Homo sapiens, UniProt P11712)
Sequence of Cytochrome P450 2C9 (P11712 whole entry): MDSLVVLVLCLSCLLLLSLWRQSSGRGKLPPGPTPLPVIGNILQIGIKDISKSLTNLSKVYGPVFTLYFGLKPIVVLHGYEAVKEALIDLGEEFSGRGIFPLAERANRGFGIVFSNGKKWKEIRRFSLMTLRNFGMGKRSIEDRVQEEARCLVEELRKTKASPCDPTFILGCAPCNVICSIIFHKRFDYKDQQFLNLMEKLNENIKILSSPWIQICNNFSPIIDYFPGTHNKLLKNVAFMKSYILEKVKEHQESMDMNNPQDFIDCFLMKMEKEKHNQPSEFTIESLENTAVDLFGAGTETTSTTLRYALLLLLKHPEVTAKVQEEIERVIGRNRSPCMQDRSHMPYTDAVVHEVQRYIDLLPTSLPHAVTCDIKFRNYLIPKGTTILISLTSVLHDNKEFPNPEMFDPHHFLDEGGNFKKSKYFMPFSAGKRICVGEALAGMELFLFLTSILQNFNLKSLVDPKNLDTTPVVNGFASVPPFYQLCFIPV

Streptokinase A = molecular target: T1, Streptokinase A (Streptococcus pyogenes serotype M1, UniProt P10520); experiment: viability-normalized secreted streptokinase activity reduction – plasminogen activation absorbance, OD405, dose response (AID 1914); assay type: functional, Streptococcus pyogenes M1 GAS;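 also: secreted streptokinase activity via plasminogen activation per viability signal from cell pellet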
T1 sequence (P10520 whole entry): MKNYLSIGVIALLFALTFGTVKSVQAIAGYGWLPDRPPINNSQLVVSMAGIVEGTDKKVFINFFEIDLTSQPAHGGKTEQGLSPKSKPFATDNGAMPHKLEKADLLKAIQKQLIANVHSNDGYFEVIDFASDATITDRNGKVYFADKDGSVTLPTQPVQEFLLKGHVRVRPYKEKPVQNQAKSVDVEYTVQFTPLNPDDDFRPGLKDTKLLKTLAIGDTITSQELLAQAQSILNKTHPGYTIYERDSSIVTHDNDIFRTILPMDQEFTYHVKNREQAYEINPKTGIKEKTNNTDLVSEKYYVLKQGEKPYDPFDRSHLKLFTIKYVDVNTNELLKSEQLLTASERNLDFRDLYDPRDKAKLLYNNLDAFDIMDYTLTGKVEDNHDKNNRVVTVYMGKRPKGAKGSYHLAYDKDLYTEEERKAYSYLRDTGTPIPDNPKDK

Cytochrome P450 1A2 = molecular target: T2, Cytochrome P450 1A2 (Homo sapiens, UniProt P05177);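 also: PubChem cytochrome P450 panel assay, CYP1A2 panel member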
T2 sequence (P05177 whole entry): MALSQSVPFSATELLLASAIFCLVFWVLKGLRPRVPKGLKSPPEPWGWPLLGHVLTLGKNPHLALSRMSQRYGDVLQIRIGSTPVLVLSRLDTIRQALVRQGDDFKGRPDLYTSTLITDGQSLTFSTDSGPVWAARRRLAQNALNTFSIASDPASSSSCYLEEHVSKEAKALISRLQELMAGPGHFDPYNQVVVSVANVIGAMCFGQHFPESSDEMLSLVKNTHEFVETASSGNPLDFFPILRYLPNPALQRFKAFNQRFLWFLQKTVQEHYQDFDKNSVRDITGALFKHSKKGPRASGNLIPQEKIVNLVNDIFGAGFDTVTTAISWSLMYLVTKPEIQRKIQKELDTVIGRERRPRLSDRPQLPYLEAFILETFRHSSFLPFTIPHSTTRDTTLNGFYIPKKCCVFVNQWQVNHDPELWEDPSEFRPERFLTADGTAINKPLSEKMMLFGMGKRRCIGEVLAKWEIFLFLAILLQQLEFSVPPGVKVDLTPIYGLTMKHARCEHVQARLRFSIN

[3] = Luminescence Cell-Based Dose Retest to Confirm Inhibitors of Cancer Stem Cells. [Related pubchem assays (depositor defined):AID2717, AID2721]; assay type: functional; conditions: Homo sapiens
[4] = viability of HCT116 lacking mutant beta-catenin – cell-based, human colon tumor, dose response (AID 1045); assay type: functional;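 also: HCT116 colon tumor cells with beta catenin knocked out; cells exposed to compound for 60 hours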
[5] = viability of PTEN-deleted HCT116 cells – cell-based, HCT116 PTEN knockout, dose response (AID 1047); assay type: functional;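 also: HCT116 colon tumor cells with PTEN knocked out; cells exposed to compound for 60 hours before readout; potency for loss of cell viability measured by luminescence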
[6] = HPDE-C7 pancreatic duct cell viability loss – fluorescence, HTS (AID 430); assay type: functional, cell-based; conditions: Homo sapiens
[7] = viability loss of HPDE-C7K cells – cell-based, fluorescence, HTS, primary screen (AID 431); assay type: functional; conditions: Homo sapiens
[8] = molecular target: T3, Endoribonuclease toxin MazF (Escherichia coli K-12, UniProt P0AE70); experiment: substrate-only fluorescence increase artefacts – biochemical, single-stranded RNase substrate, counter-screen for MazEF activator project, dose response (AID 588502); assay type: functional
T3 sequence (P0AE70 whole entry): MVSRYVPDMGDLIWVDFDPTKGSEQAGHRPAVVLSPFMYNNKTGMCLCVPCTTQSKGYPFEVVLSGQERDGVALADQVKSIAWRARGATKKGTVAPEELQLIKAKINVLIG

[9] = molecular target: T3, Endoribonuclease toxin MazF; experiment: activation of MazEF endoribonuclease cleavage – biochemical, fluorescence, single-stranded RNA substrate, uHTS hits, dose response (AID 588481); assay type: functional
[10] = Luminescence Cell-Based Dose Response HTS to Identify Activators of Luciferase Translation or Activity in H4 […] Cells. [Related pubchem assays: 1829 (Project Summary), 1814 (Primary HTS)]; assay type: functional
[11] = Luminescence Cell-Based Dose Confirmation HTS to Identify Activators of 5'UTR Stem-Loop Driven Alpha-Synuclein mRNA Translation in H4 Neuroglioblastoma Cells. [Related pubchem assays: 1829 (Project Summary), 1814 (Primary HTS)]; assay type: functional
H4 = experiment: Luminescence Cell-Based Dose Response HTS to Identify Activators of 5'UTR Stem-Loop Driven Prion Protein mRNA Translation in H4 Neuroglioblastoma Cells. [Related pubchem assays: 1829 (Project Summary), 1814 (Primary HTS)]; assay type: functional; conditions: Homo sapiens
[12] = HEK-293T viability loss after treatment – luminescence, T-cell screen hits, cytotoxicity control for TCR NF-kB inhibitor project, dose response (AID 489026); assay type: functional, cell-based;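 also: cells exposed to compound about 14 hours before the viability readout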
[13] = molecular target: Induced myeloid leukemia cell differentiation protein Mcl-1 (Homo sapiens, UniProt Q07820); assay type: functional
Sequence of Induced myeloid leukemia cell differentiation protein Mcl-1 (Q07820 whole entry): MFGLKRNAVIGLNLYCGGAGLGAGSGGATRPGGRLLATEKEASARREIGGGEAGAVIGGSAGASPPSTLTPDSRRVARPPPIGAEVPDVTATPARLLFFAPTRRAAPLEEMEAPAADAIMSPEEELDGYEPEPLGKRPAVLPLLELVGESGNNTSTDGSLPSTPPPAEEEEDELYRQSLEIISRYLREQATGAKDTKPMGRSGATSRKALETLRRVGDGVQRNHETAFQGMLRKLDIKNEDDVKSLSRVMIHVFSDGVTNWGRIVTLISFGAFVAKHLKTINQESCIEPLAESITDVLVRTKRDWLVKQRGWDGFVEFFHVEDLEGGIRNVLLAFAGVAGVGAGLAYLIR

Genome polyprotein = Genome polyprotein (dengue virus type 2, UniProt P29990); experiment: flavivirus cap methylation enzyme inhibition – biochemical, confirmation dose response, primary screen (AID 588689); assay type: functional
Sequence of Genome polyprotein (P29990 2492-3391 limits assumed): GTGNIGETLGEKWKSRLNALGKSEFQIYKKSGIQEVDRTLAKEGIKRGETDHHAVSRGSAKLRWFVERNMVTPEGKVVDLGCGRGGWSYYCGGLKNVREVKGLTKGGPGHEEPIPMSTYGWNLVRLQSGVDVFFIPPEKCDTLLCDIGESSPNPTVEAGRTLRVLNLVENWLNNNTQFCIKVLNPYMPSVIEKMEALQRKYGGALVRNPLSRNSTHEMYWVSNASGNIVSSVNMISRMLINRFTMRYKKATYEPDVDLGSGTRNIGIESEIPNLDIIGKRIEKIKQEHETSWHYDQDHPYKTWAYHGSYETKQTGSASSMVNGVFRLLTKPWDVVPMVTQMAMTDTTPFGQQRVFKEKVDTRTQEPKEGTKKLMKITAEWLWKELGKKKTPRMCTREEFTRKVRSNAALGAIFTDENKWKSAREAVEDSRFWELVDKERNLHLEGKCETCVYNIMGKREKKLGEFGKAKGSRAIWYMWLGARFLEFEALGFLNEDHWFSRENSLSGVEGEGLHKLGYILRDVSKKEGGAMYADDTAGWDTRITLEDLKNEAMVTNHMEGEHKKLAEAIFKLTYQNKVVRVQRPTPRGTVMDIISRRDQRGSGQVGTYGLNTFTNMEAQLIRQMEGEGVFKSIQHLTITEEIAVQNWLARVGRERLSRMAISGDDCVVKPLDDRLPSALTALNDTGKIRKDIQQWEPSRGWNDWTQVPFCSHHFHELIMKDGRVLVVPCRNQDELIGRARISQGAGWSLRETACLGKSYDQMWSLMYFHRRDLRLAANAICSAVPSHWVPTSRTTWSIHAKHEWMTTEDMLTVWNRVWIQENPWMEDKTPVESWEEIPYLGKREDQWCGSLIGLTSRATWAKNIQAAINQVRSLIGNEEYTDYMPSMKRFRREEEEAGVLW

Cytochrome P450 3A4 = Cytochrome P450 3A4 (Homo sapiens, UniProt P08684);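 also: CYP3A4 tested as one member of a cytochrome P450 panel screen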
Sequence of Cytochrome P450 3A4 (P08684 whole entry): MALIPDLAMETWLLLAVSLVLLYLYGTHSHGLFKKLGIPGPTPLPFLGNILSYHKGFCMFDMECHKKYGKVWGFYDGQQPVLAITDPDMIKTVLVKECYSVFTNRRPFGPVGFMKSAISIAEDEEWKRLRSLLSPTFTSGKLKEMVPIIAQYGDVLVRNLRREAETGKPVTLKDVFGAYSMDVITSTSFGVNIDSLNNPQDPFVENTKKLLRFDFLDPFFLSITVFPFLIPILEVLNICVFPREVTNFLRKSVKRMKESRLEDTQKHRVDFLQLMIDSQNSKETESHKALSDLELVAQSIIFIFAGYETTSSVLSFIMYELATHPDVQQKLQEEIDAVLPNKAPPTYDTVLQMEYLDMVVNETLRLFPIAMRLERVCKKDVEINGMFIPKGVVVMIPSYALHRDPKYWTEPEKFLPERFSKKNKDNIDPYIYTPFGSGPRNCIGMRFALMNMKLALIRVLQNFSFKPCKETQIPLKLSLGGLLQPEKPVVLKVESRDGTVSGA

Sequence of Voltage-dependent T-type calcium channel subunit alpha-1H (O95180 whole entry): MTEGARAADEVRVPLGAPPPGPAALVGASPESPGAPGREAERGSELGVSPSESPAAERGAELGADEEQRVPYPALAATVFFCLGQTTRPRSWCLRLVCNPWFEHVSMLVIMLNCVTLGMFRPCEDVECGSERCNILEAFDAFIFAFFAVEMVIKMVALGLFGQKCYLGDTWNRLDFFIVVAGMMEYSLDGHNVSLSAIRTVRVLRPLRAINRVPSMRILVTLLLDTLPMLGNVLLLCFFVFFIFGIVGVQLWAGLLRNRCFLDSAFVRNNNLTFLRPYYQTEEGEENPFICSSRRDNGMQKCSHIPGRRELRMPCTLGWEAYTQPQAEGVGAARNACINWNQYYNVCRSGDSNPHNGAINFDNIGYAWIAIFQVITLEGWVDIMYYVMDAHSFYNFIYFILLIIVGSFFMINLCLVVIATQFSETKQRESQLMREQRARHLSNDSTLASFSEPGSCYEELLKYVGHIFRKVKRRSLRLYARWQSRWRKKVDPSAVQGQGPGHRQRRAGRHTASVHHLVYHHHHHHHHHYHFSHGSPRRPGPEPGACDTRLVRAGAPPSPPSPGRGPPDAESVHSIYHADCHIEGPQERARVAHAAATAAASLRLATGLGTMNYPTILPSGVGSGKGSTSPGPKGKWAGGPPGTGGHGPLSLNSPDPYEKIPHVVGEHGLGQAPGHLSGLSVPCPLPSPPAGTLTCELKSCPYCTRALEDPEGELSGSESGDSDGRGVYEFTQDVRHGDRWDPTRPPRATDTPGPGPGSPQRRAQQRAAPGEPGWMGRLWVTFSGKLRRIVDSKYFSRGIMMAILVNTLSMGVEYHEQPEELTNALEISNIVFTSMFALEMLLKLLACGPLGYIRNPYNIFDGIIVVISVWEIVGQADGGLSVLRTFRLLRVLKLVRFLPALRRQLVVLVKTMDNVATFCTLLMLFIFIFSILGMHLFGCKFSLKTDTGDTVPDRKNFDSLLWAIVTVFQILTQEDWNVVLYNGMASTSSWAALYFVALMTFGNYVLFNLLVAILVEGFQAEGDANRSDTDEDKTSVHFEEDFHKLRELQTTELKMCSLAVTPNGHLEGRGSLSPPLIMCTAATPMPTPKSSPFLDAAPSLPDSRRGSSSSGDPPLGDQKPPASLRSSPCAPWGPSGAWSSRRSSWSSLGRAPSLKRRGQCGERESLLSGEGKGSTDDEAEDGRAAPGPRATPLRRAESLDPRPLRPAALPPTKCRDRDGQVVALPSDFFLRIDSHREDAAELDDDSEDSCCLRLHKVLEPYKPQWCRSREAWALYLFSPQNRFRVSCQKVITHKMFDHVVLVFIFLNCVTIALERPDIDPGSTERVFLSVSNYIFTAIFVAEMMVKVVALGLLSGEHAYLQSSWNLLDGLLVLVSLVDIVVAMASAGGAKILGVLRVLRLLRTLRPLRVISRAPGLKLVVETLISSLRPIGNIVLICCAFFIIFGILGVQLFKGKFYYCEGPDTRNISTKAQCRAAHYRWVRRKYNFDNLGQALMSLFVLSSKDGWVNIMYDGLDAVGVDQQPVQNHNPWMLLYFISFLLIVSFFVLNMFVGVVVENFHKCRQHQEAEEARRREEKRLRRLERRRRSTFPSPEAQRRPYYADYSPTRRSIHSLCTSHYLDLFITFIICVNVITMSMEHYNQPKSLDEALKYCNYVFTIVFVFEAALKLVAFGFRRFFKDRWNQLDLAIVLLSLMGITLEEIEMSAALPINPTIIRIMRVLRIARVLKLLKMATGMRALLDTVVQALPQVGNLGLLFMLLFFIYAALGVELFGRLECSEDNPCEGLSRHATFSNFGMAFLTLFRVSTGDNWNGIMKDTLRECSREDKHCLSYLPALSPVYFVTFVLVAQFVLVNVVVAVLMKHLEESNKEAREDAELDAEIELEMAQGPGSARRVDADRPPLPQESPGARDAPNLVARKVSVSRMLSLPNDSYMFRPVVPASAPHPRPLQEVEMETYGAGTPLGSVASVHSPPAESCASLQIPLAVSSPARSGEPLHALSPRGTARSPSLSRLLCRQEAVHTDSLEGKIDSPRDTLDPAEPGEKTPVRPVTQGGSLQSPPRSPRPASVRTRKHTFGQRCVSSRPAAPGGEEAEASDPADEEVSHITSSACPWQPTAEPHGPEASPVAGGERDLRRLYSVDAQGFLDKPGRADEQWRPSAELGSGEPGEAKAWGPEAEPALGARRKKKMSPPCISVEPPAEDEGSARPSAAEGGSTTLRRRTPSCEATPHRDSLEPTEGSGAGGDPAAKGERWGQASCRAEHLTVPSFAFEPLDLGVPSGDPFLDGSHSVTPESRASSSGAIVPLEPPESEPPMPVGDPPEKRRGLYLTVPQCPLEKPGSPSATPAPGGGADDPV

In the case of O=C(Nc1ccc2c(c1)CCC2)c1cccc(S(=O)(=O)N2CCN(c3ccccc3)CC2)c1, the EC50 [1] is reported as 6.08 µM (active).

In the case of CCNc1nc(Oc2c(Cl)cccc2Cl)cc(C(F)(F)F)n1, the EC50 (Streptococcus) is reported as > 150 µM (not active), the EC50 [2] is reported as 7.68 µM (active) and the AC50 (Cytochrome P450 2C19) is reported as 2 µM (inconclusive). For the same molecule, the AC50 (Cytochrome P450 2C9) was “inconclusive”, the EC50 (Streptokinase A) was 17.6 µM (active) and the AC50 (Cytochrome P450 1A2) was 14.1 µM (inconclusive). The AC50 [3] was 8.17 µM (active).

With CCC(Sc1nc2cc3c(cc2c(=O)n1Cc1ccco1)OCO3)C(=O)Nc1cccc(OC)c1 (stereo unspecified) the EC50 [4] was 3.68 µM (active), the EC50 [5] was 3.73 µM (active) and the EC50 [6] was 4.41 µM (active). For the same molecule, the AC50 (Cytochrome P450 1A2) was 4.47 µM (inconclusive) and the EC50 [7] was 4.17 µM (active).

For NNS(=O)(=O)c1ccc(N2CCCC2=O)c([N+](=O)[O-])c1, the EC50 [8] was > 99 µM (inactive) and the EC50 [9] was 82 µM (inactive).

With Cc1nc2ccc(C(=O)OCc3ccccc3Br)cc2nc1C the EC50 [8] was > 99 µM (inactive), the EC50 [9] was > 99 µM (inactive) and the EC50 [10] was 66.7 µM (active). The EC50 [11] was 10.8 µM (active) and the EC50 (H4) was 0.281 µM (active).

With Cc1ccc(-c2nc3ccccn3c2NCc2ccc3c(c2)OCO3)cc1 the EC50 [1] was 12.8 µM (active).

In the case of Cc1cccc(OCCNC(=O)c2ccc(Cl)c(S(=O)(=O)NCc3cccnc3)c2)c1, the IC50 [12] is reported as > 80 µM (inactive).

In the case of CC(=O)Nc1sc(N/N=C/c2ccc(O)cc2)nc1-c1ccc(C)cc1, the IC50 [13] is reported as 2.84 µM (active).

In the case of Cc1ccc(S(=O)(=O)N(CC(=O)N/N=C\c2cccs2)c2cccc3cccnc23)cc1, the EC50 [8] is reported as > 99 µM (inactive) and the EC50 [9] is reported as > 99 µM (inactive).

In the case of Nc1scc2c(C(=O)O)nn(-c3ccccc3)c(=O)c12, the IC50 (Genome polyprotein) is reported as 45 µM (active).

With COc1cc(N)c(Cl)cc1C(=O)NC1CCN(Cc2ccccc2)CC1 [CLEBOPRIDE] the AC50 (Cytochrome P450 3A4) was 3.16 µM (inconclusive), the AC50 (Cytochrome P450 2C9) was “inconclusive” and the AC50 (Cytochrome P450 1A2) was 12.6 µM (inconclusive).

For COc1ccc2c(c1O)-c1c(OC)c(OC)cc3c1[C@H](C2)N(C)CC3 [ISOCORYDINE], the AC50 (Cytochrome P450 2C9) was “inconclusive” and the AC50 (Cytochrome P450 1A2) was 10 µM (inconclusive).
